From US20220313651A1, “INHIBITORS OF ZIKA VIRUS INFECTION” (priority 2019, published 2022)

Key:
[1] = tested on: ZIKV human strain PLCal_ZV (2013/Thailand); assay: Plaque reduction inhibition assay in Vero E6 cells, ZIKV PLCal_ZV; assay type: cell-based, Zika virus (ZIKV); conditions: Vero E6 cells; Table 7, gossypol derivatives; read-out: ZIKV strains IC50, PLCal_ZV
Procedure: (§1) A plaque reduction inhibition assay was carried out to measure the inhibitory activity of Z-medicaments against infections of ZIKV and DENV. […] The compound-virus mixtures were then transferred to Vero E6 cells (10^5/well) and incubated at 37° C. for 1 h.

Vero E6 cells = assay: in vitro; conditions: Vero E6 cells
Procedure: The cytotoxicity of the Z-medicaments in Vero E6 (ZIKV target cells) was evaluated using the Cell Counting Kit-8 (CCK8).
Briefly, compounds at 2-fold serial dilutions were added to cells (2.0×10^4/well) pre-seeded in 96-well plates. The cells were cultured at 37° C. for 3 days, and incubated with CCK8 solution, followed by measurement of absorbance at 450 nm (A450 value) using microplate reader.

[2] = tested on: ZIKV human strain R116265 (2016/Mexico); assay: Plaque reduction inhibition assay in Vero E6 cells, ZIKV R116265; assay type: cell-based, Zika virus (ZIKV); conditions: Table 7, gossypol derivatives, read-out: ZIKV strains IC50, R116265
Excerpt: (§2) Vero E6 and LLC-MK2 cells were maintained in Dulbecco's Modified Eagle Medium (DMEM) supplemented with 8% fetal bovine serum (FBS) and penicillin and streptomycin (P/S). C6/36 cells were maintained in Eagle's Minimal Essential Medium (EMEM) supplemented with 5% FBS and P/S. ZIKV strains, including human strains PAN2016 (2016/Panama), R116265 (2016/Mexico), PAN2015 (2015/Panama), FLR (2015/Colombia), R103451 (2015/Honduras), PRVABC59 (2015/Puerto Rico), PLCal_ZV (2013/Thailand), and IbH 30656 (1968/Nigeria), mosquito strain MEX 2-81 (2016/Mexico), and rhesus macaque strain MR 766 (1947/Uganda), were used in the studies. These ZIKV strains were cultured in Vero E6 cells, and viral titers were detected by a standard plaque-forming assay. DENV human strains, including type 1: DENV-1-V1792 (2007/Vietnam), type 2: DENV-2-V594 (2006/Puerto Rico), type 3: DENV-3-V1043 (2006/Puerto Rico), and type 4: DENV-4-PR 06-65-740 (2006/Puerto Rico), were cultured in C6/36 cells, and the viral titers were determined by plaque-forming assay as described above.
as §1, with “h. […] The cells were washed thoroughly with PBS, and overlaid with DMEM containing 1% carboxymethyl cellulose and 2% FBS, followed by in vitro culture at 37° C. for 4-5 days and then staining with 0.5% crystal violet.” for “h.”
(§3) After removal of the unbound compounds by centrifugation after addition of 3% PEG-6000, ZIKV was incubated with Vero E6 cells at 37° C. for 1 h. The cells were then washed with PBS, overlaid with DMEM containing 1% carboxymethyl cellulose and 2% FBS, and cultured at 37° C. for 4-5 days, followed by staining with 0.5% crystal violet.

[3] = tested on: ZIKV mosquito strain MEX 2-81 (2016/Mexico); assay: Plaque reduction inhibition assay in Vero E6 cells, ZIKV MEX 2-81; assay type: cell-based, Zika virus (ZIKV); conditions: Vero E6 cells; Table 7, gossypol derivatives; read-out: ZIKV strains IC50, MEX 2-81
Excerpt: as §2
as §1, with “h. […] The cells were washed thoroughly with PBS, and overlaid with DMEM containing 1% carboxymethyl cellulose and 2% FBS, followed by in vitro culture at 37° C. for 4-5 days and then staining with 0.5% crystal violet.” for “h.”
as §3

[4] = tested on: ZIKV human strain PAN2015 (2015/Panama); assay: microbe, parasite or virus in culture; assay type: cell-based, Zika virus (ZIKV); conditions: Vero E6 cells; Table 7, gossypol derivatives; read-out: ZIKV strains IC50, PAN2015
Excerpt: as §2
as §1, with “h. […] The cells were washed thoroughly with PBS, and overlaid with DMEM containing 1% carboxymethyl cellulose and 2% FBS, followed by in vitro culture at 37° C. for 4-5 days and then staining with 0.5% crystal violet.” for “h.”
as §3

[5] = tested on: ZIKV human strain IbH 30656 (1968/Nigeria); assay: Plaque reduction inhibition assay in Vero E6 cells, ZIKV IbH 30656; assay type: cell-based, Zika virus (ZIKV); conditions: Table 7, gossypol derivatives, read-out: ZIKV strains IC50, IbH 30656
Procedure: as §1

[6] = tested on: ZIKV human strain PAN2016 (2016/Panama); assay: Plaque reduction inhibition assay in Vero E6 cells, ZIKV PAN2016; assay type: cell-based, Zika virus (ZIKV); conditions: Vero E6 cells; Table 7, gossypol derivatives; read-out: ZIKV strains IC50, PAN2016
Procedure: as §1

[7] = tested on: ZIKV human strain FLR (2015/Colombia); assay: Plaque reduction inhibition assay in Vero E6 cells, ZIKV FLR; assay type: cell-based, Zika virus (ZIKV); conditions: Vero E6 cells; Table 7, gossypol derivatives; read-out: ZIKV strains IC50, FLR
Procedure: as §1

[8] = tested on: ZIKV human strain R103451 (2015/Honduras); assay: Plaque reduction inhibition assay in Vero E6 cells, ZIKV R103451; assay type: cell-based, Zika virus (ZIKV); conditions: Vero E6 cells; Table 7, gossypol derivatives; read-out: ZIKV strains IC50, R103451
Procedure: as §1

[9] = tested on: ZIKV human strain PRVABC59 (2015/Puerto Rico); assay: Plaque reduction inhibition assay in Vero E6 cells, ZIKV PRVABC59; assay type: cell-based, Zika virus (ZIKV); conditions: Vero E6 cells; Table 7, gossypol derivatives; read-out: ZIKV strains IC50, PRVABC59
Procedure: as §1

[10] = tested on: ZIKV rhesus macaque strain MR 766 (1947/Uganda); assay: Plaque reduction inhibition assay in Vero E6 cells, ZIKV MR 766; assay type: cell-based, Zika virus (ZIKV); conditions: Vero E6 cells; Table 7, gossypol derivatives; read-out: ZIKV strains IC50, MR766
Procedure: as §1

[11] = biological target: ZIKV full-length E protein (Zika virus, UniProt Q32ZE1); assay: ELISA binding to ZIKV full-length E protein
Procedure: (§4) Binding of compounds (NPs) to ZIKV full-length E (FIG. 3A), EDIII (FIG. 3B), and NS2B-NS3 (FIG. 3C) proteins, was detected by ELISA. The percent binding was reported in the presence or absence of serially diluted NPs using the formula (1-[E/EDIII-NP]/[E/EDIII])×100 (for E/EDIII binding) or (1-[NS2B-NS3-NP]/[NS2B-NS3])×100 (for NSEB-NS3 binding). […] The concentrations of ZIKV EDIII and mAbs were 1.5 and 0.5 μg/ml, respectively. […] The concentrations of substrate (Bz-Nle-Lys-Lys-Arg-AMC) and ZIKV NS2B-NS3 protein were 4 μM and 1 μg/ml, respectively. The percent inhibition of protease activity was calculated in the presence or absence of serially diluted compounds using the formula (1-[NS2B-NS3-substrate-NP]/[NS2B-NS3-substrate])×100. The IC50 values were calculated based on the percent inhibition. The data are expressed as mean±s.e.m. (n=4).
(§5) The data are expressed as mean±s.e.m. (n=4), and DMSO was used as negative control. Surface plasmon resonance (SPR) analysis of the binding between ST087010 and ZIKV EDIII (FIG. 6D) or NS2B-NS3 (FIG. 6E) protein was performed. Binding affinity was shown as KD (equilibrium dissociation constant).
(§6) The binding between the Z-medicament and ZIKV full-length E protein, EDIII protein (E residues 298-409 fused with a C-terminal human Fc), or NS2B-NS3 protease was carried out by ELISA. Briefly, ELISA plates were pre-coated with the proteins described above at 4° C. overnight, and blocked with 2% fat-free milk at 37° C. for 2 h. Serial dilutions of the Z-medicament or DMSO (control) were then added to the plates and incubated at 37° C. for 2 h. The plates were washed with PBS containing Tween-20 (PBST), and incubated at 37° C. for 1 h with ZIKV EDIII-specific human mAb ZKA64-LALA (0.5 μg/ml) (for binding to ZIKV full-length E and EDIII proteins), or mouse sera specific to ZIKV NS2B-NS3 (for binding to NS2B-NS3 protease). The plates were washed with PBST, and incubated with horseradish peroxidase (HRP)-conjugated anti-human IgG-Fab (1:3000) or anti-mouse IgG (1:3000) antibody at 37° C. for 1 h. The 3,3′,5,5′-tetramethylbenzidine (TMB) substrate was added to the plates, and the reaction was stopped by 1 N H2SO4. Absorbance at 450 nm (A450 value) was measured by ELISA microplate reader.
(§7) Briefly, ELISA plates were coated with each protein (1 μg/ml) at 4° C. overnight, and were then incubated with blocking buffer containing 2% fat-free milk in PBST at 37° C. for 2 h. The above compounds, or DMSO control, at serial dilutions were added to the plates, and incubated at 37° C. for 2 h. After three washes using PBST, the plates were incubated at 37° C. for 2 h with ZIKV EDIII-specific human mAb ZKA64-LALA (0.5 μg/ml) (for binding to ZIKV full-length E or EDIII protein), or ZIKV NS2B-NS3-specific mouse sera (for binding to NS2B-NS3 protein). After further washes, the plates were incubated with HRP-conjugated anti-human IgG-Fab (1:3,000) or anti-mouse IgG (1:3,000) antibody at 37° C. for 1 h. The plates were incubated with substrate TMB, and the reaction was stopped by addition of 1 N H2SO4. Absorbance at 450 nm (A450 values) was measured by an ELISA microplate reader. EC50 values were calculated.

ZIKV NS2B-NS3 protease = biological target: T1, ZIKV NS2B-NS3 protease (Zika virus, UniProt Q32ZE1); assay: ELISA binding to ZIKV NS2B-NS3 protease
T1 construct: 49-97) and NS2 protein (residues 1-185) through a covalent; made in house; host or cells: E. coli
Procedure: as §4, §5, §6
as §7, with “h.” for “h. The plates were incubated with substrate TMB, and the reaction was stopped by addition of 1 N H2SO4. Absorbance at 450 nm (A450 values) was measured by an ELISA microplate reader. EC50 values were calculated.”

[12] = biological target: T2, ZIKV EDIII protein (E residues 298-409) (Zika virus, UniProt Q32ZE1, D679E/I627V/V603I/V629A); assay type: binding; conditions: ELISA
T2 construct: human Fc (C)
Procedure: as §4, §5, §6
Briefly, ELISA plates were coated with each protein (1 μg/ml) at 4° C. overnight, and were then incubated with blocking buffer containing 2% fat-free milk in PBST at 37° C. for 2 h. The above compounds, or DMSO control, at serial dilutions were added to the plates, and incubated at 37° C. for 2 h. […] Absorbance at 450 nm (A450 values) was measured by an ELISA microplate reader. EC50 values were calculated.

Row | Compound | IC50 [1] [µM] | CC50 (Vero E6 cells; Table 7, gossypol derivatives) [µM] | IC50 [2] [µM] | IC50 [3] [µM] | IC50 [4] [µM] | IC50 [5] [µM] | IC50 [6] [µM] | IC50 [7] [µM] | IC50 [8] [µM] | IC50 [9] [µM] | IC50 [10] [µM] | Binding to ZIKV full-length E protein (in words) [11] | CC50 (Vero E6 cells; 3 days, CCK8, Table 1) [µM] | Binding to ZIKV NS2B-NS3 protein (in words) (ZIKV NS2B-NS3 protease) | Binding to ZIKV EDIII protein (in words) [12]
1 | Cc1cc2nc[nH]c2c(N=Cc2c(O)c(O)c(C(C)C)c3cc(C)c(-c4c(C)cc5c(C(C)C)c(O)c(O)c(C=Nc6c(C)c(C)cc7nc[nH]c67)c5c4O)c(O)c23)c1C [ST092971] | 6.72 ± 0.2 | 72.1 ± 1.91 | 7.97 ± 0.17 | 13.5 ± 0.58 | 5.01 ± 0.36 | 5.16 ± 0.21 | 4.98 ± 0.01 | 6.89 ± 0.05 | 6.64 ± 0.27 | 9.1 ± 0.11 | 5.2 ± 0.37 | – | – | – | –
2 | CCC(O)/N=C/c1c(O)c(O)c(C(C)C)c2cc(C)c(-c3c(C)cc4c(C(C)C)c(O)c(O)c(/C=N/C(O)CC)c4c3O)c(O)c12 (stereo not shown) [ST005138] | 3.87 ± 0.54 | 22.82 ± 0.02 | 3.13 ± 0.29 | 2.89 ± 0.12 | 2.18 ± 1.19 | 2.4 ± 0.27 | 2.29 ± 0.01 | 3.44 ± 0.18 | 3.05 ± 0.09 | 3.89 ± 0.32 | 2.52 ± 0.04 | – | – | – | –
3 | Cc1cc2c(C(C)C)c(O)c(O)c3c2c(c1-c1c(C)cc2c(C(C)C)c(O)c(O)c4c2c1OC4N)OC3N (stereo not shown) [ST069299] | 3.98 ± 0.54 | 25.9 ± 2.7 | 2.57 ± 0.2 | 3.89 ± 0.24 | 2.33 ± 0.1 | 2.54 ± 0.44 | 2.34 ± 0.06 | 3.27 ± 0.25 | 3.85 ± 0.11 | 3.33 ± 0.3 | 4.88 ± 0.05 | – | – | – | –
4 | CC(C)C[C@H](NC(=O)[C@H](Cc1ccccc1)NC(=O)c1cnccn1)B(O)O [Bortezomib, bortezomib, reference compound] | – | – | – | – | – | – | – | – | – | – | – | bound to no ZIKV proteins tested | 17 ± 0.2 | bound to no ZIKV proteins tested | bound to no ZIKV proteins tested
